Source: patent US7183092B2, “Modified luciferase” (priority 2003, dated 2007)
“Also recorded” adds a separate entry of the source.

Experiments:
Assay type in all cases: biochemical, Photinus pyralis
[1] = Specific activity of luciferase in the absence of DTT; settings: 0 mM DTT, pH 7.8, 1 mM ATP, 500 μM D-Luciferin, three replicates
Method: Dithiothreitol (DTT) is an enzyme stabilizing agent used to reduce disulfide bonds (break the bonds) that are not normally formed under physiological conditions. Both purified wild type luciferase and CNBLuc03-06 luciferase (SEQ ID NO: 4) were diluted to 2 μg/ml in 40 mM Tris Acetate buffer at pH 7.8. The assay contained 40 mM Tris-Acetate at pH 7.8, 1 mM MgSO4, 0.1 mM EDTA, 500 μM D-Luciferin, 1 mM ATP, and 0 mM DTT. The light output was measured over time and three replicate measurements were made for each luciferase. The average value of the highest light output reading obtained over time was used to determine specific activity of each enzyme.

[2] = Stability of CNBLuc03-02 luciferase activity in the presence of HPV solvents; settings: FIG. 2, 33 mM DTT, 10% ethanol; for inhibition of luciferase activity by toluene: 0.5% toluene
Method: (§1) The stability of CNBLuc03-02 luciferase (SEQ ID NO: 2) in the presence of a range of potential inhibitors was assayed. The basic assay contained 40 mM Tris-Acetate at pH 7.8, 1 mM MgSO4, 0.1 mM EDTA (ethylenediaminetetraacetic acid), 500 μM D-Luciferin and 500 μM ATP. Ethanol, DTT (dithiothreitol) and potential inhibitors were included at the concentrations stated.
Toluene inhibited CNBLuc03-02 luciferase (SEQ ID NO: 2) activity by approximately 40% and wild type luciferase activity by approximately 80%.

[3] = Luciferase activity at different pHs; settings: up to pH 11
Method: 20 ng of enzyme was used for each reaction. The pH was maintained at 7.8 by 40 mM Tris-acetate buffer and 33 mM DTT was added to each reaction. Both substrates, MGATP and D-Luciferin were saturated at 1 mM and 500 μM respectively. The values were normalized against the highest RLU (relative light units) at each pH optimum for comparison purpose. CNBLuc03-06 luciferase (SEQ ID NO: 4) has optimum pH of 9, but the high enough activity is retained at lower pHs in which enables us to use this mutant luciferase in case a wide range of pH is required for the assay (between 8–11).

[4] = Luciferase activity in the presence of anionic detergent SDS; settings: FIG. 5; 20 ng purified luciferase, 0% ethanol, 33 mM DTT
Method: as §1, with “CNBLuc03-06” for “CNBLuc03-02”, “4), both in purified form and in cell lysates,” for “2)”
(§2) The stability of CNBLuc03-06 luciferase (SEQ ID NO: 4) in the presence of Triton X-100 and SDS was determined using 20 ng of purified luciferase per sample using the basic assay conditions and in the presence of 0% ethanol and 33 mM DTT. The effect of detergents on wild type luciferase was determined previously by W. J. Simpson and J. R. M. Hammond (W. J. Simpson and J. R. M. Hammond, (1991) Journal of Bioluminescence & Chemiluminescence, 6. 97–106, incorporated herein by reference). They reported the anionic detergents inhibit luciferase activity, and cationic detergents and nonionic detergents increase the reaction rate when the concentration of detergent exceeds critical micelle concentration (CMC) value but only up to certain concentrations.
SDS was used for testing the effect of anionic detergents.

[5] = Stability of CNBLuc03-06 luciferase activity in the presence of HPV chemicals; settings: FIG. 3, 1 mM DTT, 2.5% ethanol
Method: as §1, with “CNBLuc03-06” for “CNBLuc03-02”, “4), both in purified form and in cell lysates,” for “2)”
This effect was confirmed by repeated experiments. With 20 ng purified CNBLuc03-06 luciferase (SEQ ID NO: 4) and in the presence of 2.5% ethanol, 1 mM DTT and 86 mM chloroform an activation of approximately 50% was measured, compared with the absence of chloroform.
The capacity of a variety HPV chemicals to inhibit or activate both wild type luciferase and CNBLuc03-06 luciferase (SEQ ID NO: 4) activity compared to controls without HPV chemicals was tested. Higher concentrations of chloroform (172 mM), methylene chloride (318 mM) or toluene (2.7 mM) were used. The basic assay contained 20ng of purified CNBLuc03-06, 1 mM DTT and 2.5% ethanol. CNBLuc03-06 luciferase (SEQ ID NO: 4) was exposed to each chemical for less than 5 minutes before measuring the light output.

[6] = Luciferase activity in the presence of nonionic detergent Triton X-100; settings: FIG. 4; Triton X-100 up to 5%, 20 ng purified luciferase, 0% ethanol, 33 mM DTT
Method: as §1, with “CNBLuc03-06” for “CNBLuc03-02”, “4), both in purified form and in cell lysates,” for “2)”
as §2

[7] = Stability of CNBLuc03-02 luciferase activity in the presence of chloroform; settings: 5% ethanol, 33 mM DTT, 10 μl cell lysates; for inhibition of luciferase activity by 0.8% CHCl3: 0.8% chloroform; for original activity maintained: FIG. 1, different concentrations of chloroform
Method: as §1

[8] = Quantitative in vitro screening of mutant luciferases with chloroform; settings: cell lysate supernatant
Method: Selected colonies from secondary screening were inoculated and grown in 5 ml LB broth containing 100 μg/ml ampicillin at 30° C. overnight. When the OD660 reached approximately 1, bacterial cells were harvested from 1.5 ml of culture by centrifugation for 3 min at 12,000 rpm (Eppendorf centrifuge model 5415D). Harvested cells were resuspended in 1 ml of 40 mM Tris-Acetate buffer, pH 7.8, and sonicated for 10 seconds using a Branson Sonifer 450, Duty cycle-40 and output control-4. The activity of each luciferase sample, prepared using 10 μl of supernatant from a subsequent centrifugation of sonicated bacterial cell culture, was tested in 200 μl total reaction volume by a Luminometer (Perkin Elmer, model Victor II). Each assay contained 40 mM Tris-Acetate, 1 mM MgSO4, 0.1 mM EDTA (ethylenediaminetetraacetic acid), 33 mM DTT (dithiothreitol), 500 μM D-Luciferin, 10% Ethanol and 500 μM ATP at pH 7.8. Some screening assays also contained 68.8 mM chloroform (0.8% vol.).
Different mutant luciferases were compared quantitatively by determining the percentage (%) inhibition of luciferase activity in the presence of chloroform relative to a control without chloroform. The specific activities of chloroform-tolerant mutants were generally lower as compared to wild type. […] The nucleotide sequence of CNBLuc03-02 is SEQ ID No: 1. The polypeptide sequence of the product of SEQ ID No: 1 is SEQ ID No: 2.

Row | inhibition of luciferase activity by HPV solvents other than toluene ([2]; 0.5% of CH2Cl2, hexane, xylene or heptane, 10 μl cell lysate) [%] | inhibition of luciferase activity in the presence of chloroform relative to a control without chloroform ([8]; screening, 68.8 mM chloroform (0.8% vol.), 10% ethanol, 33 mM DTT) | Molecule | specific activity (highest light output) [1] | inhibition of luciferase activity by toluene ([2]; 10 μl cell lysate) | activity at elevated pH [3] | effect of SDS on luciferase activity [4] | inhibition compared to controls, chloroform ([5]; chloroform 172 mM, exposure less than 5 minutes) | inhibition compared to controls, methylene chloride ([5]; methylene chloride 318 mM) | inhibition compared to controls, toluene ([5]; toluene 2.7 mM) | effect of Triton X-100 on luciferase activity [6] | inhibition of luciferase activity by 0.8% CHCl3 [7] | original activity maintained [7] | inhibition by HPV solvents compared with wild type ([2]; 0.5% of each solvent (CH2Cl2, toluene, hexane, xylene, heptane)) | specific activity compared to wild type ([8]; screening assay)
1 | – | – | wild type luciferase: amino acid sequence of luciferase of the species Photinus pyralis (SEQ ID NO: 6) [reference compound] | 2.9±1.6×10^9 RLU/mg enzyme/sec | approximately 80% | completely inhibit | inhibited luciferase activity significantly | about 70% | about 70% | about 20% | activated by the nonionic detergent, Triton X-100, up to final concentration of 1.25%; also recorded: increased until 1.25% then it started decreasing | over 80% | about 20% | – | –
2 | ≤ 15 | inhibited much less by chloroform | CNBLuc03-02: modified Photinus pyralis luciferase: serine replaced by threonine at amino acid 239 and alanine replaced by threonine at amino acid 532 (protein, listed as Photinus pyralis) MEDAKNIKKGPAPFYPLEDGTAGEQLHKAMKRYALVPGTIAFTDAHIEVNITYAEYFEMSVRLAEAMKRYGLNTNHRIVVCSENSLQFFMPVLGALFIGVAVAPANDIYNERELLNSMNISQPTVVFVSKKGLQKILNVQKKLPIIQKIIIMDSKTDYQGFQSMYTFVTSHLPPGFNEYDFVPESFDRDKTIALIMNSSGSTGLPKGVALPHRTACVRFSHARDPIFGNQIIPDTAILTVVPFHHGFGMFTTLGYLICGFAVVLMYRFEEELFLRSLQDYKIQSALLVPTLFSFFAKSTLIDKYDLSNLHEIASGGAPLSKEVGEAVAKRFHLPGIRQGYGLTETTSAILITPEGDDKPGAVGKVVPFFEAKVVDLDTGKTLGVNQRGELCVRGPMIMSGYVNNPEATNALIDKDGWLHSGDIAYWDEDEHFFIVDRLKSLIKYKGYQVAPAELESILLQHPNIFDAGVAGLPDDDAGELPAAVVVLEHGKTMTEKEIVDYVASQVTTAKKFRGGVVFVDEVPKGLTGKLDTRKIREILIKAKKGGKSKL | – | approximately 40% | – | – | – | – | – | – | ~30% | 80% | not inhibited as much as wild-type luciferase | comparable activity
